# Measurements from patent US11382921B2, “Use of compounds in preparation of a medicament for treatment of hemorrhagic stroke” (priority 2017, dated 2022).
# Key:
# [1] = test system: C57B mouse model of cerebral hemorrhage; assay: Determination of intracerebral hemorrhage (hemorrhage area, brain hemoglobin content) in collagenase-induced intracerebral hemorrhage model; type: in vivo; conditions: C57B mice
# Procedure: (§1) 112 clean grade health C57 male mice (8˜10 week, 20-22 g) were purchased from Beijing Vital River Laboratory Animal Technology Co. Ltd. Feeding conditions: 22° C.˜26° C., humidity 50%˜60%. The mice were grouped, fed with standard feed and purified water, and subjected to adaptive feeding for 1 week.
# Establishment of Intracerebral hemorrhage model: After weighing body weight of mice, anesthesia was induced by 5% enflurane, and maintained by 2% enflurane mixed with 70% N2O and 30% O2. Mice were fixed on a stereotactic apparatus in the prone position and disinfected topically. The skin of the animals was incised to expose the skull for drilling. 0.3 μl of 0.35UVII collagenase was slowly injected with a micro sampler. The needle was kept for 5 min then slowly pulled out for 5 min, and the skull drilling was covered by bone glue. Animals were sutured, and subjected to routine disinfection. In the sham operation group, the needle was inserted in the same way, but without injection. The solvent or Triol was administered by intraperitoneal injection at 60 mg/kg 1 h after modeling. […]
# chloral hydrated peritoneal was injected intraperitoneally for anesthesia at 24 hours after modeling. […] The hemoglobin content in the brain was measured with a hemoglobin detection kit.
# [2] = test system: C57B mouse model of cerebral hemorrhage; assay: Neurobehavioral scoring (circle test, adhesive paper test, modified Garcia score) in collagenase-induced intracerebral hemorrhage model; type: in vivo; conditions: C57B mice, 60 mg/kg i.p. 1 h after modeling
# Procedure: FIG. 2. […] A. Circle test; Adhesive paper test; B. Time duration for contacting adhesive paper; C. Time consumption to tear off adhesive paper; *p<0.05, ***p<0.001, n=12˜23 animals/group. con: normal; sham: sham-operated group; ICH: cerebral hemorrhage model; vehicle: solvent.
# FIG. 3. […] Modified Garcia score (A-D) is used to evaluate somatosensory and motor function at 24 hours after cerebral hemorrhage in C57B mice: A. Nose hair contact test; B. Limb symmetry test; C. Forelimb walking test, D. Overall nerve function Score; n=12˜23 animals/group, *p<0.05, **p<0.01, ***p<0.001. con: normal; sham: sham-operated group; ICH: cerebral hemorrhage model; vehicle: solvent.
# as §1
# Establishment of Intracerebral hemorrhage model: After weighing body weight of mice, anesthesia was induced by 5% enflurane, and maintained by 2% enflurane mixed with 70% N2O and 30% O2. Mice were fixed on a stereotactic apparatus in the prone position and disinfected topically. The skin of the animals was incised to expose the skull for drilling. 0.3 μl of 0.35UVII collagenase was slowly injected with a micro sampler. The needle was kept for 5 min then slowly pulled out for 5 min, and the skull drilling was covered by bone glue. Animals were sutured, and subjected to routine disinfection. In the sham operation group, the needle was inserted in the same way, but without injection. The solvent or Triol was administered by intraperitoneal injection at 60 mg/kg 1 h after modeling.
# C57 mice were divided into 5 groups using random number method, namely normal control group (n=12), sham operation group (n=12), cerebral hemorrhage group (n=26), cerebral hemorrhage+solvent intraperitoneal injection 1 h after modeling group (n=26), and cerebral hemorrhage+Triol intraperitoneal injection 1 h after modeling group (n=26).
# The neurological function was measured 24 hours after the cerebral hemorrhage model was established.
compound,measurement,setting,value
"C[C@@]12CCCC1C1C[C@@H](O)[C@@]3(O)C[C@@H](O)CC[C@]3(C)C1CC2 (stereo partly drawn) [Triol, 5α-androst-3β,5,6β-triol]",hemoglobin content of the hemorrhagic hemisphere (amount of hemorrhage),"[1]; 60 mg/kg i.p. 1 h after modeling, 24 h, vs cerebral hemorrhage model group, p<0.01 (FIG. 1B)",decreased significantly
same,hemorrhage area (volume) of the hemisphere brain with collagenase injection,"[1]; Triol 60 mg/kg intraperitoneal 1 h after modeling, 24 h later (FIG. 1A)",significantly reduced
same,adhesive paper test: time consumption to remove adhesive paper,"[2]; 24 h, p<0.001 (FIG. 2C)",significantly reduced
same,modified Garcia score: beard touch avoidance (nose hair contact test),"[2]; 24 h, p<0.001 (FIG. 3A)",significantly restored
same,"neurological function scores (overall, modified Garcia)","[2]; 24 h, p<0.001 (FIG. 3D)",significantly improved
same,modified Garcia score: symmetry of the limbs' movement,"[2]; 24 h, p<0.01 (FIG. 3B)",significantly improved
same,adhesive paper test: time duration for contacting adhesive paper,"[2]; 24 h, p<0.05 (FIG. 2B)",significantly reduced
same,modified Garcia score: forelimb walking,"[2]; 24 h, p<0.05 (FIG. 3C)",significantly improved
same,circle test: time taken to go out of the center of the circle to any point of the circle edge,[2]; 24 h after cerebral hemorrhage (FIG. 2A),has a tendency to decrease
